Reference: the METLIN SMRT retention time set (Domingo-Almenara et al. 2019)

experiment: gradient 5% acetonitrile 3 min, to 50% in 2 min, to 85% in 15 min, held 3 min, 100 µL/min; conditions: column: Zorbax Extend-C18 2.1 x 50 mm; eluents: water / acetonitrile, 0.1% formic acid
How it was run: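 Retention times come from adduct peaks that were picked computationally and then checked by hand. The standards, pure and pooled in mixtures of ~100 molecules, were run on a Zorbax Extend-C18 column (2.1 × 50 mm, 1.8 μm) at 100 μL/min with water and acetonitrile, each with 0.1% formic acid. Detection was by quadrupole time-of-flight mass spectrometry in positive and negative ionization mode, with a dead volume of 40 μL and a dwell volume of 900 μL.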

Compound | RP-LC retention time
O=C1CN(S(=O)(=O)c2ccc(Cl)s2)CC2(CCCCC2)N1Cc1ccccc1 | 1180 s
CCOC(=O)c1cc(S(=O)(=O)N2CCCC2C(=O)Nc2cccc(C(F)(F)F)c2)cn1C (stereo not drawn) | 1050 s
CN(C)c1ccc(CN2C(=O)CN(S(C)(=O)=O)CC2(C)C(=O)NCc2ccccc2)cc1 (stereo not drawn) | 622 s
Cc1ccccc1CNc1nc2ccncc2n(C(C)C)c1=O | 745 s
CCn1c(=O)cc(OCC(=O)N2CCN(c3ccccn3)CC2)c2ccccc21 | 584 s
CC1CCCN(CCCNC(=O)c2nc(CCS(=O)(=O)c3ccc(F)cc3)no2)C1 (stereo not drawn) | 620 s
O=C(c1cccc(Cl)c1)N1CCN(c2cc(-c3cccs3)[nH]n2)CC1 | 816 s
CCCCN(Cc1nc2nc(C)cc(C)n2n1)C(=O)c1ccco1 | 720 s
CCCN1C(=O)c2cc(S(=O)(=O)NCc3ccco3)ccc2Oc2cccnc21 | 952 s
CCOc1ccc(NC(=O)Cc2nnc(-c3ccncc3)o2)cc1 | 670 s
O=C(NCc1ccc(F)cc1F)C1CCN(c2ccc(SCc3ccccc3)nn2)CC1 | 646 s
CC(C)Oc1ccccc1CN1CC(F)(F)C[C@H]1COc1ccncc1 | 752 s
Cc1ccc(Nc2c(-c3ccc(O)cc3)nc3cc(C)ccn23)cc1 | 696 s
O=C(Nc1cccc(F)c1)[C@@H]1OCC(=O)N(C2CC2)[C@H]1c1ccccc1 | 849 s
CC(C)n1c(N2CCN(C(=O)CCc3nc4ccccc4[nH]3)CC2)cc(=O)n(C(C)C)c1=O | 648 s
CCCN(CC1CC1)C(=O)CCC[C@@H]1[C@H]2CCCN3CCC[C@@H](CN1C(C)=O)[C@@H]23 | 618 s
C(=C\c1ccccn1)/c1ccccn1 | 590 s
c1coc(-c2nc(-c3ccc4c(c3)nnn4CCN3CCCCC3)no2)c1 | 652 s
CCC(C)N(CC(=O)N1CCc2sccc2C1COc1ccccc1OC)C(=O)COC (stereo not drawn) | 845 s
COC(=O)c1sc2ccccc2c1S(=O)(=O)N1CCC(C(N)=O)(N2CCCCC2)CC1 | 652 s
COc1ccc(NC(=O)CN2CCC(c3nc(-c4cccs4)no3)CC2)cc1 | 670 s
CCOC(=O)C1CCN(CC(O)COc2cc(C)cc(C)c2C)CC1 (stereo not drawn) | 597 s

Compound | RP-LC retention time
CC(C)(C)C(=O)Nc1ccc(SCc2nnc(-c3ccc4c(c3)OCO4)o2)cc1 | 945 s
Cc1ccc(-c2cc3c(N4CCC(C(=O)NC5CCCCC5)CC4)nccn3n2)c(C)c1 | 905 s
CCC(C)(C)C(=O)NC1CCN(C2=NS(=O)(=O)C(c3cccc(Cl)c3)=C2C)CC1 | 915 s
O=C(c1c(F)cccc1F)N1CCc2nc(-c3ccccc3)ncc2C1 | 909 s
COc1ccc(OCc2noc(CNS(=O)(=O)CCN3C(=O)CCCC3=O)n2)cc1 | 693 s
CCOC(=O)Cn1nc2c(-c3nc(-c4ccc(Cl)cc4)no3)cccn2c1=O | 958 s
COc1ccc(NC(=O)CSc2cc(C)nc(-c3cnccn3)n2)cc1Cl | 757 s
O=C(c1ccc(Cl)s1)N1CCCn2nc(-c3ccncc3)cc2C1 | 623 s
Cc1ccc(C)c(NC(=O)c2cc(C(C)C)n3nccc3n2)c1 | 1240 s
Cc1cc(C(=O)NOCCO)c(Nc2ccc(I)cc2F)n(C)c1=O | 718 s
COc1cccc(Cc2nc(Cc3nc(-c4ccccc4)oc3C)no2)c1 | 1090 s
Cc1cc(C)cc(NC(=O)C2CCN(S(=O)(=O)c3ccc(-c4noc(C5CC5)n4)cc3)CC2)c1 | 838 s
Cn1c(=O)c(SCC(=O)NCc2ccccc2Cl)nc2cccnc21 | 786 s
CCn1c(=O)c(N2CCN(C(=O)Nc3ccc(Br)cc3)CC2)nc2cccnc21 | 1030 s
O=C(NCc1ccc2c(c1)OCO2)c1nn(-c2ccc(Cl)cc2)nc1CO | 1010 s
Cc1cccc(NC(=O)Cn2ccc3ccn(C)c3c2=O)c1C | 761 s
CCOc1ccc(C(=O)N2CCC3(CC2)NC(=O)c2cccc(Cl)c2N3)cc1 | 790 s
CC(C)n1c(C2CCN(C(=O)Nc3ccc(Cl)cc3F)C2)nc2ccncc21 (stereo not drawn) | 567 s
CCC(C(=O)Nc1ccc(Cl)cc1)n1cnc2nc3c(cc2c1=O)CCCC3 (stereo not drawn) | 878 s
CCc1cccc(NC(=O)C2CCN(S(=O)(=O)c3cc(-c4noc(C5CC5)n4)cs3)CC2)c1 | 1110 s
Cc1ccc(F)cc1S(=O)(=O)N1CCc2c(c(-c3nnc(-c4ccc(F)cc4)o3)nn2C)C1 | 1000 s
CC12C(=O)OC(=O)C1(C)C1CCC2O1 (stereo not drawn) | 813 s

Compound | RP-LC retention time
COc1c(C(=O)NC(C)C)sc2cc(Cl)ccc12 | 1060 s
CCN1CCN(S(=O)(=O)c2cc(-c3nc(C(C)C)cs3)sc2C)CC1 | 744 s
Cc1cc(C(=O)NC2CCCCC2)nc2cc(-c3cccs3)nn12 | 1220 s
O=C(CSc1nnc(-c2ccncc2)o1)Nc1cccc([N+](=O)[O-])c1 | 669 s
C=CCN1C(=O)CC(Nc2ccc(CC)cc2)C1=O (stereo not drawn) | 846 s
COCCNC(=O)C1CCN(C(=O)c2cccn2-c2cccnc2)CC1 | 578 s
CCCn1cc(S(=O)(=O)Nc2cccc(C)c2C)c2cccnc21 | 943 s
O=C(Nc1nc2cccc(-c3ccc(CN4CCS(=O)(=O)CC4)cc3)n2n1)C1CC1 | 687 s
CC(=O)Nc1ccc(SCCCC(=O)Nc2ccc3c(c2)OCCO3)nn1 | 634 s
COc1ccc(-c2c(C(=O)O)nnn2-c2ccc(OC)c(OC)c2)cc1 | 712 s
CCCN1CCN(c2cc(C(=O)O)c3cc(NS(=O)(=O)c4ccc(F)c(F)c4)ccc3n2)CC1 | 651 s
Cc1ccc(C)c(NC(=O)C2CCN(S(=O)(=O)c3cc(-c4noc(C)n4)cs3)CC2)c1 | 953 s
COc1cc(Nc2ncc(F)c(Nc3ccc4c(n3)N(COP(=O)(O)O)C(=O)C(C)(C)O4)n2)cc(OC)c1OC | 653 s
CCC(C)NC(=O)C1CCCN(C(=O)c2[nH]c(C)c(C(=O)OC(C)C)c2C)C1 (stereo not drawn) | 774 s
Cc1cccc(C(=O)N2CCC3(CC2)NC(=O)c2cc(F)ccc2N3C)c1 | 779 s
COC(=O)c1[nH]c(C)c(C(=O)C(C)N(CC(C)C)C(=O)c2ccc(OC)cc2)c1C (stereo not drawn) | 859 s
CC(C)Cn1cc(NC(=O)N2CCN(c3ccccn3)CC2)c2ccccc2c1=O | 573 s
COc1ccc(OC)c(Nc2c(-c3cccc(O)c3)nc3cnccn23)c1 | 727 s
CC1CCCCN1S(=O)(=O)c1cc(-c2nnc(C3CCCC3)o2)co1 (stereo not drawn) | 1060 s
CN(C)C(=O)c1cccc2c1CCN2C(=O)c1ccccc1 | 706 s
COc1ccc(S(=O)(=O)N2CCC(c3noc(-c4ccccc4C)n3)CC2)cc1OC | 1090 s
Cc1nc(CC(=O)NCc2ccc(F)cc2F)sc1C(=O)NC1CC1 | 693 s

Compound | RP-LC retention time
CCn1c(=O)c2cc(C(=O)Nc3cccc(C(=O)OC)c3)nn2c2ccccc21 | 977 s
Cc1c(C(=O)N2CCSCC2)cnn1-c1ccc(-c2nc(C3CC3)no2)cn1 | 960 s
CC(C)(C)C(=O)Nc1ccc2nc(N3CCN(c4ccccc4Cl)CC3)cc(C(=O)O)c2c1 | 750 s
O=c1c2ccccc2oc2nc(-c3ccco3)n(Cc3ccccc3)c(=O)c12 | 797 s
CCCn1cc(C(=O)NCCCN(C)C)c(S(=O)(=O)N2CCN(c3cccc(Cl)c3)CC2)n1 | 758 s
COCCN1C(=O)[C@H]2CN(Cc3ccc(C)cc3C)C[C@H]2C1=O | 644 s
COC(=O)c1ccc(CN2C(=O)C(O)(c3ccccc3)c3ccccc32)cc1 (stereo not drawn) | 899 s
O=C(N[C@H]1C[C@@H]2C[C@H]1CN2S(=O)(=O)c1cccc2cccnc12)c1ccccc1 | 792 s
CCOCCCNC(=O)CCCn1c2ccccc2c2cnn(C)c(=O)c21 | 728 s
CCc1ccccc1NC(=O)N1CCC(N2CCN(Cc3ccccc3)C(=O)C2=O)CC1 | 730 s
O=C(NCCN1CCN(c2ccccc2F)CC1)C1CCCN(c2nc3cccnc3s2)C1 (stereo not drawn) | 632 s
CCCn1c(-c2cccc(C(=O)NCc3cccs3)c2)nc2cccnc21 | 782 s
COc1ccc(NC(=O)N2CCN(c3nc4cccnc4s3)CC2)cc1 | 690 s
COCc1cc(=O)n(CC(=O)Nc2ccccc2)c(N2CCOCC2)n1 | 767 s
Cc1cc(C(=O)NC(C)C)n[nH]1 | 592 s
CCOc1cc(=O)n2c(c1C(=O)NCCCOC(C)C)CCCCC2 | 646 s
Cc1ccc(C)c(N2CCN(c3ccnc(SCC(=O)Nc4cccc(Cl)c4)n3)CC2)c1 | 999 s
CCn1cnc(S(=O)(=O)N2CCC(C(=O)Nc3cccc4ccccc34)CC2)c1 | 732 s
O=C1c2cccc3c2[C@@H](CCC3)CN1[C@@H]1CN2CCC1CC2 | 664 s
Cc1ccc(NC(=O)NCCn2c(-c3ccncc3)nc3cccnc32)c(C)c1 | 641 s
COc1ccc2ncc(S(=O)(=O)c3ccc(C)c(Cl)c3)c(OC)c2c1 | 1100 s
Cc1ccc(-c2cc3c(=O)n(Cc4noc(CN5CCCCCCC5)n4)ccn3n2)cc1 | 757 s
